pIC50: −log10 of the molar value. Like-named read-outs stand apart in the source and are kept apart here.
System: Pfeiffer cells, lymphoma cells having EZH2 mutation (A677G)
Assay: Proliferation inhibition of cells of hematologic malignancies (CCK-8, 11 days)
Type: cell-based
Conditions: 11 days culture, read-out: Cell proliferation inhibitory effect (IC50)
Protocol: The growth inhibitory activity of 1,3-benzodioxole derivative compounds represented by chemical formula I of the present invention against Pfeiffer cells, which are lymphoma cells having EZH2 mutation (A677G), was evaluated.
Pfeiffer was cultured using RPMI1640 containing 10% fetal bovine serum. The cells were inoculated into wells of a 96-well culture dish at 10,000 cells each, and cultured for 11 days after treating with the test material for each concentration. For 11 days, the test material was replaced every three to four days. After culturing, the cells were treated with a cell counting kit-8 (CCK-8) reagent for each well, absorbance was measured at 450 nm, and IC50 values for cell proliferation were obtained through curve fitting of non-linear regression in the GraphPad program (GraphPad Prism 5.0 software).

pIC50 | pIC50 (Homo sapiens, Pfeiffer, 264 h) | SMILES
≥ 8.00 | – | CCN1CCC(C2(C)Oc3c(-c4ccc(N5C[C@@H](C)O[C@@H](C)C5)nc4)cc(C(=O)NCc4c(SC)cc(C)[nH]c4=O)c(C)c3O2)CC1 (single isomer, unassigned) [Compound 49]
– | ≥ 8.00 | COC1CN([C@H]2CC[C@H](C3(C)Oc4c(-c5ccc(N6C[C@@H](C)O[C@@H](C)C6)nc5)cc(C(=O)NCc5c(SC)cc(C)[nH]c5=O)c(C)c4O3)CC2)C1 (stereo partly drawn) [Compound 106, 7-(6-((2S,6R)-2,6-dimethylmorpholino)pyridin-3-yl)-2-(trans-4-(3-methoxyazetidin-1-yl)cyclohexyl)-2,4-dimethyl-N-((6-methyl-4-(methylthio)-2-oxo-1,2-dihydropyridin-3-yl)methyl)benzo[d][1,3]dioxole-5-carboxamide]
– | 7.00 to 8.00 | CSc1cc(C)[nH]c(=O)c1CNC(=O)c1cc(-c2ccc(N3C[C@@H](C)O[C@@H](C)C3)nc2)c2c(c1C)OC(C)([C@H]1CC[C@H](N3CC(OCC(F)(F)F)C3)CC1)O2 (some centres unmarked) [Compound 102]
≥ 8.00 | – | CSc1cc(C)[nH]c(=O)c1CNC(=O)c1cc(-c2ccc(N3C[C@@H](C)O[C@@H](C)C3)nc2)c2c(c1C)OC(C)(C1CCN(CCc3ccccc3)CC1)O2 (single isomer, unassigned) [Compound 55]
– | 7.00 to 8.00 | CSc1cc(C)[nH]c(=O)c1CNC(=O)c1cc(-c2cnc(N3CCSCC3)nc2)c2c(c1C)OC(C)(C1CCN(CC(F)(F)F)CC1)O2 (centres unmarked) [Compound 92, 2,4-dimethyl-N-((6-methyl-4-(methylthio)-2-oxo-1,2-dihydropyridin-3-yl)methyl)-7-(2-thiomorpholinopyrimidin-5-yl)-2-(1-(2,2,2-trifluoroethyl)piperidin-4-yl)benzo[d][1,3]dioxole-5-carboxamide]
– | 7.00 to 8.00 | CSc1cc(C)[nH]c(=O)c1CNC(=O)c1cc(-c2ccc3c(c2)OCO3)c2c(c1C)OC(C)(C1CCN(CC(F)F)CC1)O2 (centres unmarked) [Compound 95, 2-(1-(2,2-difluoroethyl)piperidin-4-yl)-2,7-dimethyl-N-((6-methyl-4-(methylthio)-2-oxo-1,2-dihydropyridin-3-yl)methyl)-[4,5′-bibenzo[d][1,3]dioxol]-6-carboxamide]
– | 7.00 to 8.00 | CSc1cc(C)[nH]c(=O)c1CNC(=O)c1cc(-c2ccc3c(c2)OCO3)c2c(c1C)OC(C)(C1CCN(CC(F)(F)F)CC1)O2 (centres unmarked) [Compound 94, 2,7-dimethyl-N-((6-methyl-4-(methylthio)-2-oxo-1,2-dihydropyridin-3-yl)methyl)-2-(1-(2,2,2-trifluoroethyl)piperidin-4-yl)-[4,5′-bibenzo[d][1,3]dioxol]-6-carboxamide]
– | ≥ 8.00 | CSc1cc(C)[nH]c(=O)c1CNC(=O)c1cc(-c2cnc(N3CCC4(CC3)COC4)nc2)c2c(c1C)OC(C)([C@H]1CC[C@H](N(C)C)CC1)O2 (stereo partly drawn) [Compound 15, 7-(2-(2-oxa-7-azaspiro[3.5]nonan-7-yl)pyrimidin-5-yl)-2-(trans-4-(dimethylamino)cyclohexyl)-2,4-dimethyl-N-((6-methyl-4-(methylthio)-2-oxo-1,2-dihydropyridin-3-yl)methyl)benzo[d][1,3]dioxole-5-carboxamide]
– | ≥ 8.00 | CCN(C)c1ccc(-c2cc(C(=O)NCc3c(SC)cc(C)[nH]c3=O)c(C)c3c2OC(C)(C2CCN(CC(F)F)CC2)O3)cn1 (single isomer, unassigned) [Compound 88, 2-(1-(2,2-difluoroethyl)piperidin-4-yl)-7-(6-(ethyl(methyl)amino)pyridin-3-yl)-2,4-dimethyl-N-((6-methyl-4-(methylthio)-2-oxo-1,2-dihydropyridin-3-yl)methyl)benzo[d][1,3]dioxole-5-carboxamide]
– | ≤ 7.00 | CCCCN(C)c1ccc(-c2cc(C(=O)NCc3c(SC)cc(C)[nH]c3=O)c(C)c3c2OC(C)(C2CCN(CC(F)(F)F)CC2)O3)cn1 (centres unmarked) [Compound 98, 7-(6-(butyl(methyl)amino)pyridin-3-yl)-2,4-dimethyl-N-((6-methyl-4-(methylthio)-2-oxo-1,2-dihydropyridin-3-yl)methyl)-2-(1-(2,2,2-trifluoroethyl)piperidin-4-yl)benzo[d][1,3]dioxole-5-carboxamide]
– | ≥ 8.00 | CSc1cc(C)[nH]c(=O)c1CNC(=O)c1cc(-c2ccc(N3CCOCC3)nc2)c2c(c1C)OC(C)(C1CCN(CC(F)(F)F)CC1)O2 (centres unmarked) [Compound 61, 2,4-dimethyl-N-((6-methyl-4-(methylthio)-2-oxo-1,2-dihydropyridin-3-yl)methyl)-7-(6-morpholinopyridin-3-yl)-2-(1-(2,2,2-trifluoro)piperidin-4-yl)benzo[d][1,3]dioxole-5-carboxamide]
– | ≤ 7.00 | CSc1cc(C)[nH]c(=O)c1CNC(=O)c1cc(-c2ccc(N3C[C@@H](C)O[C@@H](C)C3)nc2)c2c(c1C)OC(C)([C@H]1CC[C@H](N3CC(OC(C)C)C3)CC1)O2 (stereo partly drawn) [Compound 105, 7-(6-((2S,6R)-2,6-dimethylmorpholino)pyridin-3-yl)-2-(trans-4-(3-isopropoxyazetidin-1-yl)cyclohexyl)-2,4-dimethyl-N-((6-methyl-4-(methylthio)-2-oxo-1,2-dihydropyridin-3-yl)methyl)benzo[d][1,3]dioxole-5-carboxamide]
– | ≥ 8.00 | CCN1CCN(c2ncc(-c3cc(C(=O)NCc4c(SC)cc(C)[nH]c4=O)c(C)c4c3OC(C)(C3CCN(CC(F)(F)F)CC3)O4)cn2)CC1 (centres unmarked) [Compound 75, 7-(2-(4-ethylpiperazin-1-yl)pyrimidin-5-yl)-2,4-dimethyl-N-((6-methyl-4-(methylthio)-2-oxo-1,2-dihydropyridin-3-yl)methyl)-2-(1-(2,2,2-trifluoroethyl)piperidin-4-yl)benzo[d][1,3]dioxole-5-carboxamide]
≥ 8.00 | – | CSc1cc(C)[nH]c(=O)c1CNC(=O)c1cc(-c2ccc(N3C[C@@H](C)O[C@@H](C)C3)nc2)c2c(c1C)OC(C)(C1CCN(CC(F)(F)F)CC1)O2 (single isomer, unassigned) [Compound 44]
≤ 7.00 | – | CSc1cc(C)[nH]c(=O)c1CNC(=O)c1cc(-c2ccc(N3C[C@@H](C)O[C@@H](C)C3)nc2)c2c(c1C)OC(C)(C1CCN(C(C)C)CC1)O2 (single isomer, unassigned) [Compound 52]
– | ≥ 8.00 | CSc1cc(C)[nH]c(=O)c1CNC(=O)c1cc(-c2ccc(N3C[C@@H](C)O[C@@H](C)C3)nc2)c2c(c1C)OC(C)([C@H]1CC[C@H](N(C)CC3OCCO3)CC1)O2 (stereo partly drawn) [Compound 32, 2-(trans-4-(((1,3-dioxolan-2-yl)methyl)(methyl)amino)cyclohexyl)-7-(6-((2S,6R)-2,6-dimethylmorpholino)pyridin-3-yl)-2,4-dimethyl-N-((6-methyl-4-(methylthio)-2-oxo-1,2-dihydropyridin-3-yl)methyl)benzo[d][1,3]dioxole-5-carboxamide]
≥ 8.00 | – | CSc1cc(C)[nH]c(=O)c1CNC(=O)c1cc(-c2ccc(N3CCOCC3)nc2)c2c(c1C)OC(C)(C1CCN(CC(F)F)CC1)O2 (single isomer, unassigned) [Compound 64, 2-(1-(2,2-difluoroethyl)piperidin-4-yl)-2,4-dimethyl-N-((6-methyl-4-(methylthio)-2-oxo-1,2-dihydropyridin-3-yl)methyl)-7-(6-morpholinopyridin-3-yl)benzo[d][1,3]dioxole-5-carboxamide]
≥ 8.00 | – | CSc1cc(C)[nH]c(=O)c1CNC(=O)c1cc(-c2ccc(N3C[C@@H](C)O[C@@H](C)C3)nc2)c2c(c1C)OC(C)(C1CCN(CCCC(F)(F)F)CC1)O2 (single isomer, unassigned) [Compound 57]
– | ≥ 8.00 | COCCN(C)[C@H]1CC[C@H](C2(C)Oc3c(-c4ccc(N5CCC(F)(F)CC5)nc4)cc(C(=O)NCc4c(SC)cc(C)[nH]c4=O)c(C)c3O2)CC1 (stereo partly drawn) [Compound 27, 7-(6-(4,4-difluoropiperidin-1-yl)pyridin-3-yl)-2-(trans-4-((2-methoxyethyl)(methyl)amino)cyclohexyl)-2,4-dimethyl-N-((6-methyl-4-(methylthio)-2-oxo-1,2-dihydropyridin-3-yl)methyl)benzo[d][1,3]dioxole-5-carboxamide]
≤ 7.00 | – | CSc1cc(C)[nH]c(=O)c1CNC(=O)c1cc(-c2ccc(N3C[C@@H](C)O[C@@H](C)C3)nc2)c2c(c1C)OC(C)(C1CCN(C(=O)C(F)(F)F)CC1)O2 (single isomer, unassigned) [Compound 60]
– | ≥ 8.00 | CSc1cc(C)[nH]c(=O)c1CNC(=O)c1cc(-c2ccc(N3C[C@@H](C)O[C@@H](C)C3)nc2)c2c(c1C)OC(C)(C1CCN(C[C@H](C)O)CC1)O2 (stereo partly drawn) [Compound 40, 7-(6-((2S,6R)-2,6-dimethylmorpholino)pyridin-3-yl)-2-(1-((S)-2-hydroxypropyl)piperidin-4-yl)-2,4-dimethyl-N-((6-methyl-4-(methylthio)-2-oxo-1,2-dihydropyridin-3-yl)methyl)benzo[d][1,3]dioxole-5-carboxamide]
– | ≥ 8.00 | CSc1cc(C)[nH]c(=O)c1CNC(=O)c1cc(-c2ccc(N3CC(C)CC(C)C3)nc2)c2c(c1C)OC(C)([C@H]1CC[C@H](N(C)C)CC1)O2 (stereo partly drawn) [Compound 16, 2-(trans-4-(dimethylamino)cyclohexyl)-7-(6-(3,5-dimethylpiperidin-1-yl)pyridin-3-yl)-2,4-dimethyl-N-((6-methyl-4-(methylthio)-2-oxo-1,2-dihydropyridin-3-yl)methyl)benzo[d][1,3]dioxole-5-carboxamide]
– | ≥ 8.00 | CSc1cc(C)[nH]c(=O)c1CNC(=O)c1cc(-c2ccc(N3C[C@@H](C)O[C@@H](C)C3)nc2)c2c(c1C)OC(C)([C@H]1CC[C@H](N(C)C)CC1)O2 (stereo partly drawn) [Compound 1, 2-(trans-4-(dimethylamino)cyclohexyl)-7-(6-((2S,6R)-2,6-dimethylmorpholino)pyridin-3-yl)-2,4-dimethyl-N-((6-methyl-4-(methylthio)-2-oxo-1,2-dihydropyridin-3-yl)methyl)benzo[d][1,3]dioxole-5-carboxamide]

Source: patent US20250059180A1 (DONG WHA PHARM. CO., LTD., priority 2022, published 2025)
